Test results taken from the supplement of paper PMC10307832.

How the values were obtained:
Experiment in all cases: relative viability (nuclei count vs DMSO), 5 days (fraction); higher = more cells survive
R406 + Bortezomib = compound: COc1cc(Nc2ncc(F)c(Nc3ccc4c(n3)NC(=O)C(C)(C)O4)n2)cc(OC)c1OC [R406] + CC(C)C[C@H](NC(=O)[C@H](Cc1ccccc1)NC(=O)c1cnccn1)B(O)O [Bortezomib] (partner 0.002 µM)
Summary of the method: (§1)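 A single step with final 0.05% Triton X-100, 1% formaldehyde and 1 ug/ml Hoechst fixed the cells and stained nuclei 5 days after treatment. Lung cancer cell lines in 1536-well plates had been treated by pin tool the day after seeding with one drug alone or a fixed anchor-drug dose plus five library-drug doses (not always all listed) in √10 steps, and nuclei were counted on 4× images. Relative viability is the ratio of nuclei in treated wells to nuclei in vehicle wells, taken as the median of duplicate plates.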

R406 + Vorinostat = compound: COc1cc(Nc2ncc(F)c(Nc3ccc4c(n3)NC(=O)C(C)(C)O4)n2)cc(OC)c1OC [R406] + O=C(CCCCCCC(=O)Nc1ccccc1)NO [Vorinostat] (partner 1 µM)
Summary of the method: as §1

Daporinad + Phenformin = compound: O=C(/C=C/c1cccnc1)NCCCCC1CCN(C(=O)c2ccccc2)CC1 [Daporinad] + N=C(N)NC(=N)NCCc1ccccc1 [Phenformin] (partner 250 µM)
Summary of the method: as §1

Daporinad + AZD7762 = compound: O=C(/C=C/c1cccnc1)NCCCCC1CCN(C(=O)c2ccccc2)CC1 [Daporinad] + NC(=O)Nc1cc(-c2cccc(F)c2)sc1C(=O)N[C@H]1CCCNC1 [AZD7762] (partner 0.2 µM)
Summary of the method: as §1

Cell Line | relative viability (R406 + Bortezomib; first compound 0.08 µM) | relative viability (R406 + Bortezomib; first compound 0.253 µM) | relative viability (R406 + Bortezomib; first compound 0.8 µM) | relative viability (R406 + Bortezomib; first compound 2.53 µM) | relative viability (R406 + Bortezomib; first compound 8 µM) | relative viability (R406 + Vorinostat; first compound 0.08 µM) | relative viability (R406 + Vorinostat; first compound 0.253 µM) | relative viability (R406 + Vorinostat; first compound 0.8 µM) | relative viability (R406 + Vorinostat; first compound 2.53 µM) | relative viability (R406 + Vorinostat; first compound 8 µM) | relative viability (Daporinad + Phenformin; first compound 0.0005 µM) | relative viability (Daporinad + Phenformin; first compound 0.001581 µM) | relative viability (Daporinad + Phenformin; first compound 0.005 µM) | relative viability (Daporinad + Phenformin; first compound 0.01581 µM) | relative viability (Daporinad + AZD7762; first compound 0.0005 µM) | relative viability (Daporinad + AZD7762; first compound 0.001581 µM) | relative viability (Daporinad + AZD7762; first compound 0.005 µM) | relative viability (Daporinad + AZD7762; first compound 0.01581 µM)
EBC-1 | 0.606 | 0.616 | 0.672 | 0.44 | 0.231 | – | – | – | – | – | – | – | – | – | – | – | – | –
NCI-H1299 | 1 | 1.02 | 1.02 | 1.04 | 1.04 | – | – | – | – | – | – | – | – | – | – | – | – | –
NCI-H2228 | 1.05 | 1.15 | 1.32 | 0.118 | 0.304 | 0.693 | 0.64 | 0.786 | 0.281 | 0.175 | 0.352 | 0.301 | 0.311 | 0.417 | – | – | – | –
NCI-H522 | – | – | – | – | – | 0.937 | 1.04 | 1.01 | 0.838 | 0.812 | 0.654 | 0.758 | 0.695 | 0.682 | 0.808 | 1.13 | 0.816 | 0.538
IA-LM | 0.878 | 0.841 | 0.815 | 0.904 | 0.705 | 0.984 | 0.756 | 1.04 | 0.99 | 1.05 | – | – | – | – | – | – | – | –
NCI-H2170 | – | – | – | – | – | 0.799 | 0.791 | 0.987 | 0.571 | 0.658 | 0.379 | 0.424 | 0.415 | 0.458 | 0.807 | 0.974 | 0.979 | 0.92
NCI-H1793 | – | – | – | – | – | 0.632 | 0.967 | 0.928 | 0.128 | 0.182 | 0.322 | 0.395 | 0.403 | 0.564 | 0.467 | 0.511 | 0.522 | 0.764
NCI-H520 | 0.604 | 0.804 | 0.971 | 0.209 | 0.157 | 0.671 | 0.698 | 0.668 | 0.384 | 0.162 | 0.554 | 0.286 | 0.187 | 0.22 | – | – | – | –
NCI-H661 | 0.769 | 0.877 | 0.945 | 0.721 | 0.469 | 0.813 | 0.772 | 0.737 | 0.796 | 0.724 | 0.266 | 0.284 | 0.308 | 0.288 | – | – | – | –
NCI-H1623 | – | – | – | – | – | – | – | – | – | – | 0.545 | 0.519 | 0.613 | 0.591 | – | – | – | –
NCI-H2023 | 0.914 | 1.04 | 1.08 | 0.0862 | 0.29 | 0.732 | 0.784 | 0.618 | 0.391 | 0.312 | 0.409 | 0.399 | 0.405 | 0.447 | – | – | – | –
NCI-H2009 | 0.983 | 1.11 | 1.24 | 0.427 | 0.27 | 0.711 | 0.749 | 0.785 | 0.739 | 0.363 | 0.447 | 0.497 | 0.492 | 0.337 | – | – | – | –
